50 compounds from BindingDB's records for doi:10.7270/Q2H70D5W (University of Pittsburgh, 2007) can be followed below.

The target of this test is Gag-Pol polyprotein (Human immunodeficiency virus type 1 group M subtype B (isolate HXB2), UniProt P04585). The experiment in a line: HIV-1 RT RNase H inhibitor potency, dose response, biochemical, probe assessment (AID 652). The note with it: pH 8; 23 °C.

The structures appear in SMILES notation.

As to `Cc1ccc(-n2c(N)c(C(=O)N3CCCCC3)sc2=S)cc1` [4-amino-3-(4-methylphenyl)-5-(1-piperidinylcarbonyl)-1,3-thiazole-2(3H)-thione], 2.3 µM corresponded to half-maximal inhibition (IC50). As to `CCC(C)c1ccc2oc(-c3ccc(NC(=O)c4nnc[nH]4)cc3)nc2c1` (stereo not given) [N-[4-(5-sec-butyl-1,3-benzoxazol-2-yl)phenyl]-1H-1,2,4-triazole-3-carboxamide], the IC50 (commonly the concentration that inhibits the measured activity by half) came out at 6.07 µM.

Turning to `COC(=O)c1ccc2c(c1)N(Cc1nc(-c3cccc(C)c3)oc1C)C(=O)C1CCCN21` (stereo not given) [4-keto-5-[[5-methyl-2-(m-tolyl)oxazol-4-yl]methyl]-1,2,3,3a-tetrahydropyrrolo[1,2-a]quinoxaline-7-carboxylic acid methyl ester], the IC50 turned out to be 5.97 µM. The compound `CCOc1cc(C2C(C#N)C(=N)SC(=N)C2C#N)ccc1OCCN1CCOCC1` (stereo not given) [2,6-bis(azanyl)-4-[3-ethoxy-4-(2-morpholin-4-ylethoxy)phenyl]-4H-thiopyran-3,5-dicarbonitrile] gave a half-maximal inhibitory concentration (IC50) of 31.5 µM. The compound `CCOc1ccc(-n2c(=O)c3c4c(sc3n(CC(=O)NCc3ccco3)c2=O)CCC4)cc1` [2-(1,3-diketo-2-p-phenetyl-7,8-dihydro-6H-cyclopenta[2,3]thieno[2,4-b]pyrimidin-4-yl)-N-(2-furfuryl)acetamide] returned an IC50 of 22.4 µM.

Regarding `C=CCOC(=O)C1=C(C)N=C(SCC(=O)Nc2ccc(C)c(Cl)c2)C(C#N)C1c1ccco1` (stereo not given) [prop-2-enyl 6-[2-(3-chloro-4-methylanilino)-2-oxoethyl]sulfanyl-5-cyano-4-(furan-2-yl)-2-methyl-1,4-dihydropyridine-3-carboxylate], the half-maximal inhibitory concentration (IC50) turned out to be 4.25 µM. This IC50 is about 5.3-fold lower than that of the compound before. In turn, `Cc1cc(C)c2c(=O)n(CC(=O)N3CCC(N4CCCCC4)CC3)sc2n1` [2-[2-keto-2-(4-piperidinopiperidino)ethyl]-4,6-dimethyl-isothiazolo[5,4-b]pyridin-3-one] gave an IC50 of 38.4 µM. With `CCOC(=O)N1CCc2c(sc3c2C(=O)NC(c2ccc(-c4ccc(Cl)cc4)o2)N3)C1` (stereo not given) [2-[5-(4-chlorophenyl)-2-furanyl]-4-oxo-1,2,3,5,6,8-hexahydropyrido[2,3]thieno[2,4-d]pyrimidine-7-carboxylic acid ethyl ester] the figure was 5.27 µM; with `Cc1cccc(Nc2nnc(S)s2)c1C` [5-(2,3-dimethylanilino)-3H-1,3,4-thiadiazole-2-thione], 3.59 µM. For `Cc1ccc(-c2cc(C(=O)NC3=NCCS3)c3cc(Br)ccc3n2)o1` [6-bromanyl-N-(4,5-dihydro-1,3-thiazol-2-yl)-2-(5-methylfuran-2-yl)quinoline-4-carboxamide] the value was 0.175 µM; for `CCC1CC2(C)NC(=O)c3c(sc4c3CC(C)(C)OC4)N2C1=O` (stereo not given) [MLS000077638], 2.88 µM. In the case of `CCOC(=O)c1c(NC(=O)c2cc(C3CC3)on2)sc2c1CCCC2` [2-[(5-cyclopropylisoxazole-3-carbonyl)amino]-4,5,6,7-tetrahydrobenzothiophene-3-carboxylic acid ethyl ester], inhibition was half-maximal at 1.7 µM (IC50). Compared with the last compound, the IC50 is about 1.7-fold lower. For the compound `c1ccc(-c2ccc(C3=Nc4ncnn4C(c4ccco4)C3)cc2)cc1` (stereo not given), 14.5 µM corresponded to half-maximal inhibition (IC50). This IC50 is about 8.5-fold higher than that of the compound before.

As to `Fc1ccc(-c2nnc3sc(-c4ccc5c(c4)OCO5)nn23)cc1` [6-(1,3-benzodioxol-5-yl)-3-(4-fluorophenyl)-[1,2,4]triazolo[3,4-b][1,3,4]thiadiazole], the IC50 was 3.92 µM. The compound `CCOC(=O)C1CCCN(C(=O)Cn2sc3nc(C)cc(C)c3c2=O)C1` (stereo not given) [1-[2-(3-keto-4,6-dimethyl-isothiazolo[5,4-b]pyridin-2-yl)acetyl]nipecotic acid ethyl ester] registered an IC50 of 9.03 µM. Regarding `Cc1ccnc(-n2sc3ccccc3c2=O)n1` [2-(4-methyl-2-pyrimidinyl)-1,2-benzothiazol-3-one], the IC50 was found to be 1.17 µM. This IC50 lies about 7.7-fold lower than the previous one.

Consider `Fc1ccc(-c2ccc(-c3nn4c(-c5ccco5)nnc4s3)o2)cc1` [6-[5-(4-fluorophenyl)-2-furanyl]-3-(2-furanyl)-[1,2,4]triazolo[3,4-b][1,3,4]thiadiazole], for which half-maximal inhibition (IC50) was put at 8.95 µM.

With `COc1ccc(OC)c(S(=O)(=O)Nc2ccc(O)c(Sc3nc[nH]n3)c2)c1` [N-[4-hydroxy-3-(1H-1,2,4-triazol-3-ylthio)phenyl]-2,5-dimethoxybenzenesulfonamide], it took 2.46 µM to reach half-maximal inhibition (IC50).

In turn, `O=C(NCc1ccco1)c1cccnc1-c1nc2ccccc2s1` [2-(1,3-benzothiazol-2-yl)-N-(2-furanylmethyl)-3-pyridinecarboxamide] displayed an IC50 of 3.26 µM. For `O=C(Nc1nc(-c2ccncc2)cs1)c1ccco1` [MLS000053154] the value was 5.64 µM; for `Cc1cc(C)n2c(S)nnc2n1`, 8.1 µM. For `C=CCn1c(SCC(=O)NC(=O)NCc2ccco2)nc2sc(C)c(C)c2c1=O` [2-(5,6-dimethyl-4-oxidanylidene-3-prop-2-enyl-thieno[2,3-d]pyrimidin-2-yl)sulfanyl-N-(furan-2-ylmethylcarbamoyl)ethanamide] the value was 19 µM; for `CC(Cc1ccc(O)c(O)c1)C(C)Cc1ccc(O)c(O)c1` (stereo not given) [LOX inhibitor, N/A], 0.664 µM; for `CC(=O)N(Cc1cc(=O)[nH]c2ccccc12)c1cccc(C)c1` [N-(3-methylphenyl)-N-[(2-oxidanylidene-1H-quinolin-4-yl)methyl]ethanamide], 5.08 µM. The compound `CCCc1nc2ccccc2c(=O)n1N=Cc1ccc(O)c(O)c1` returned a half-inhibitory concentration (IC50) of 0.767 µM. For `c1cncc(-c2nn3c(Cn4cnc5ccccc54)nnc3s2)c1` [1-{[6-(3-pyridinyl)[1,2,4]triazolo[3,4-b][1,3,4]thiadiazol-3-yl]methyl}-1H-benzimidazole] the value was 0.621 µM. For `COC(=O)c1ccccc1NC(=O)c1ccc2c(c1)C(=O)N(Cc1ccco1)C2=O` [2-[[2-(2-furfuryl)-1,3-diketo-isoindoline-5-carbonyl]amino]benzoic acid methyl ester] the value was 7.36 µM; for `Cc1cc(C)c(C#N)c(=N)o1` [2-azanylidene-4,6-dimethyl-pyran-3-carbonitrile], 0.298 µM; for `c1ccc(-n2ncc3c2ncn2nc(-c4ccco4)nc32)cc1` [MLS000041701], 8.01 µM.

The compound `c1ccc(-c2ccc(-c3ccccn3)nn2)nc1` [3,6-bis(2-pyridinyl)pyridazine] yielded an IC50 of 15.4 µM. Compared with the last compound, the IC50 is about 1.9-fold higher. With `CC(C)Cc1cc(C(=O)Nc2sc3c(c2C#N)CCCC3)no1` [MLS000116410] the figure was 4.76 µM; with `COc1ccccc1CNC(=O)c1cc2c(=O)n(C)c3ccccc3c2n1C` [4-keto-1,5-dimethyl-N-o-anisyl-pyrrolo[3,2-c]quinoline-2-carboxamide], 24.7 µM. For `N#Cc1cc(-c2ccccc2)nn1-c1ccccc1`, the IC50 came to 0.876 µM. `COc1ccccc1/N=c1\oc2c(OC)cccc2cc1C(=O)NCc1ccco1` [8-Methoxy-2-[(Z)-2-methoxy-phenylimino]-2H-chromene-3-carboxylic acid (furan-2-ylmethyl)-amide]: half-maximal inhibition (IC50) required 3.13 µM. This IC50 lies about 3.6-fold higher than the previous one.

Compound `Cc1cccc(NC(=O)Cn2c(C)c(C#N)c3ccccc32)c1C` [2-(3-Cyano-2-methyl-indol-1-yl)-N-(2,3-dimethyl-phenyl)-acetamide] yielded an IC50 of 29 µM. With `O=C1c2sc3nc4ccccc4n3c2C(=O)N1c1ccccc1Cl` [MLS000038506] the figure was 1.13 µM; with `COc1ccc(Br)cc1C1CC(=O)N2CN(C)CSC2=C1C#N` (stereo not given) [8-(5-bromanyl-2-methoxy-phenyl)-3-methyl-6-oxidanylidene-2,4,7,8-tetrahydropyrido[2,1-b][1,3,5]thiadiazine-9-carbonitrile], 7.18 µM. As to `Nc1c(S(=O)(=O)c2cccc(Cl)c2)c2c(n1N=CC1=CC(=O)C(=O)C=C1)Nc1ccccc1N2` [4-[[2-azanyl-3-(3-chlorophenyl)sulfonyl-4,9-dihydropyrrolo[3,2-b]quinoxalin-1-yl]iminomethyl]cyclohexa-3,5-diene-1,2-dione], 0.266 µM corresponded to half-maximal inhibition (IC50). For `c1csc(-c2nn3c(C4COc5ccccc5O4)nnc3s2)c1` (stereo not given) [3-(2,3-dihydro-1,4-benzodioxin-2-yl)-6-(2-thienyl)[1,2,4]triazolo[3,4-b][1,3,4]thiadiazole] the value was 1.21 µM; for `O=C(COc1ccc(Br)cc1)Nc1ccc(-c2nnc(-c3ccco3)o2)cc1` [2-(4-bromanylphenoxy)-N-[4-[5-(furan-2-yl)-1,3,4-oxadiazol-2-yl]phenyl]ethanamide], 6.33 µM. On to `CCOC(=O)c1c(N)sn(-c2ccccc2C)c1=S` [5-amino-2-(2-methylphenyl)-3-sulfanylidene-4-isothiazolecarboxylic acid ethyl ester], for which half-maximal inhibition (IC50) was put at 2.28 µM. For `COc1cc(OC)c(C2CC(=O)N3CN(C)CSC3=C2C#N)cc1OC` (stereo not given) [3-methyl-6-oxidanylidene-8-(2,4,5-trimethoxyphenyl)-2,4,7,8-tetrahydropyrido[2,1-b][1,3,5]thiadiazine-9-carbonitrile] the value was 14.5 µM; for `C=CCOc1ccc(CC2C(=O)N(C)C(=O)N(C)C2=O)cc1` [1,3-dimethyl-5-[(4-prop-2-enoxyphenyl)methyl]-1,3-diazinane-2,4,6-trione], 2.61 µM; for `c1ccc(Cc2nn3c(Cn4nnc5ccccc54)nnc3s2)cc1` [3-(1-benzotriazolylmethyl)-6-(phenylmethyl)-[1,2,4]triazolo[3,4-b][1,3,4]thiadiazole], 1.84 µM. The compound `c1ccc(N2CCN(c3nc4cc5c(cc4s3)OCO5)CC2)cc1` [6-(4-phenyl-1-piperazinyl)-[1,3]dioxolo[4,5-f][1,3]benzothiazole] registered an IC50 of 3.21 µM. Take `CCCc1cc(C(N)=O)c(NC(=O)C2CCCO2)s1` (stereo not given) [MLS000065925]: the midpoint of inhibition, the IC50, lay at 1.89 µM. For `O=c1c(O)c(-c2ccc(O)cc2O)oc2cc(O)cc(O)c12` [2-(2,4-dihydroxyphenyl)-3,5,7-trihydroxychromen-4-one] the value was 2.11 µM; for `COc1cc(/N=c2/ssnc2Cl)cc(OC)c1OC` [SMR000025034], 0.281 µM. With `CC(C)OC(=O)CSc1nnc(-c2ccc(C(C)(C)C)cc2)n1N` [2-[[4-amino-5-(4-tert-butylphenyl)-1,2,4-triazol-3-yl]thio]acetic acid isopropyl ester] the figure was more than 50 µM; with `Cc1ccccc1NC(=O)c1c(O)n2c3c(cccc3c1=O)CC2` [6-Hydroxy-4-oxo-1,2-dihydro-4H-pyrrolo[3,2,1-ij]quinoline-5-carboxylic acid o-tolylamide], 21.7 µM.
